Experimental findings from article PMC12645137 (Current Neuropharmacology, 2025) are described below.

Experiment [1] concerns the target T1, BChE (source equine serum) (Equus caballus, UniProt P81908).
T1 construct: from tissue; host or cells: equine serum
In words: biochemical. As to conditions: read-out: % BChE Inhibition. As to the method: The cholinesterase inhibitory potentials of our synthesized compounds were evaluated against cholinesterase enzymes (AChE/BChE). The AChE (source Electric eel) and BChE (source equine serum) were used in the study following previously published Ellman's assay. The assay basic principle involves the hydrolytic breakdown of acetylthiocholine iodide (ATChI) by AChE and butyryl thiocholine iodide (BTChI) by BChE enzymes, leading to the formation of an intermediate compound which is subsequently complexed with 5,5-dithio bis nitrobenzoic acid (DTNB) to form a UV-detectable compound. The yellowish color product indicates the hydrolysis of ATChI and BTChI substrates by respective enzymes, which were analyzed at 412 nm using a UV-visible spectrophotometer. […] A test sample of 1000 µl was taken in a cuvette, to which enzyme solution (50 µl) and DTNB reagent of 50 µL were added. The AChE (0.03 U/ml) and BChE (0.01 U/ml) solutions were prepared in 0.1 M phosphate buffer having pH 8.0. The ATChI and BTChI substrate solutions (0.0005 M) and 0.0002273 M solution of DTNB were prepared using distilled water and stored at 8°C before further use. For 15 minutes, the solution mixture was incubated at 30 °C, after which a solution of the substrate (50 µl) was added and then subjected to spectroscopic analysis. Using a double beam spectrophotometer, the sample absorbance was measured for 4 minutes at 412 nm beside the time of reaction. […] All values were taken in triplicate under the same conditions.
Enzymatic activity percentage=V/Vmaxx100
V is the reaction rate in the inhibitor's presence, whereas Vmax is the reaction rate in the absence of the inhibitor.

Experiment [2] has as its system scopolamine-induced amnesic mice. In words: Y-Maze test in scopolamine-induced amnesic animals. As to conditions: scopolamine 1 mg/kg amnesic mice; i.p.; AN-1 10 mg/kg, progesterone 10 mg/kg, galantamine 8 mg/kg; disease group 22.27%. The class given is in vivo, albino mice. As for the experimental part:
(§1) The mice were divided into the following five groups, and each group had six animals. The standard drug and test samples were carefully administered to the mice via the intraperitoneal route.
(§2) Group IV (Progesterone treated group) = Animals treated with 10 mg/kg progesterone and scopolamine 1 mg/kg.
(§3) Group V (Test compound group) = Animals received 10 mg/kg progesterone derivative (AN-1) and 1 mg/kg scopolamine.
To determine the effect of synthesized compounds on short-term learning and memory of experimental mice, a Y-Maze test was used. The Y-Maze apparatus consists of three arms that are fixed at 120° angle from each other and have 30 cm length, 20 cm height, and 8 cm width dimensions. After 30 minutes of giving test compounds intraperitoneally, the mouse was positioned at the arm end in such a way that it faced away from the midpoint of the apparatus and was permitted to search the apparatus for five minutes freely. The arm entry sequence and number by each mouse were recorded for 5 minutes using a digital camera. Alternation is defined as the successive entry into 3 dissimilar arms by a mouse (i.e., CBA, BCA, ABC). When the back paws of a mouse were found inside an arm wholly, the arm entry was considered completed. Seventy percent v/v ethanol was used for cleaning the apparatus and to avoid smell cues. The spontaneous alternation performance (SAP) percentage was calculated using the following formula [37]:
% alternation = [(alternations number) / (total arm entries number – 2)] × 100

Experiment [3] has the same test system. In words: Open field test (OFT) in scopolamine-induced amnesic animals. The class given is in vivo, albino mice. The conditions noted are these: i.p., AN-1 10 mg/kg, progesterone 10 mg/kg, galantamine 8 mg/kg; for number of lines crossed: 5 min, disease group 26.33; for number of lines crossed / time spent in the central area: scopolamine 1 mg/kg amnesic mice; for time spent in the central area: 30 min exploration, disease group 4.66; for time spent in the peripheral area: versus scopolamine/disease group. As for the experimental part: as §1, §2, §3
Open field behavioral test was carried out for the assessment of locomotor activities like the number of line crossing. The apparatus was made from plywood having 81×81×28.5 cm dimensions. Sixteen squares (20×20 cm) were made on the base of the apparatus by drawing four horizontal and four vertical lines. […] Furthermore, exploration time spent by mice in central and peripheral areas of the apparatus was also recorded by allowing the mice for 30 minutes to explore the apparatus.

Experiment [4] has the same test system. In words: Elevated Plus Maze (EPM) test in scopolamine-induced amnesic animals. It counts as in vivo, albino mice. The conditions noted are these: scopolamine 1 mg/kg amnesic mice, i.p., AN-1 10 mg/kg, progesterone 10 mg/kg, galantamine 8 mg/kg; for retention transfer latency (RTL): 24 h after training, disease group 67 sec; for initial transfer latency (ITL): disease group 73 sec. As for the experimental part: as §1, §2, §3
The EPM behavioral test was performed to assess the learning abilities and long-term spatial memory of the experimental animals. The EPM apparatus has the appearance of a plus sign which was 50 cm elevated from the ground. The apparatus has two open arms (50 cm long and 10 cm wide), and two closed arms having dimensions of 20, 50, and 10 cm in height, length, and width, respectively. The open and closed arms were joined with a 10 × 10 central square.
After 30 minutes of the intraperitoneal drug administration on the seventh day of treatment, mice of each group were placed over the open arm end of the EPM apparatus in such a way that their faces were away from the midpoint of the apparatus. Transfer latency (TL) is the time a mouse takes to enter the closed arm entirely with all its legs from the open arm of the apparatus. The time of initial transfer latency (ITL) was observed, and then the animals were allowed freely for 1.5 minutes to search the EPM apparatus.
After twenty-four hours of the training period, test trials were conducted to determine the retention of tasks that were learnt during training. Retention transfer latency (RTL) was measured by placing the experimental mice at the open end of the apparatus, ensuring that they faced away from its midpoint. The mouse was allowed to enter the closed arm entirely with all its legs. A decline in TL compared to ITL indicated an improvement in memory.

T1 sequence (P81908 whole entry): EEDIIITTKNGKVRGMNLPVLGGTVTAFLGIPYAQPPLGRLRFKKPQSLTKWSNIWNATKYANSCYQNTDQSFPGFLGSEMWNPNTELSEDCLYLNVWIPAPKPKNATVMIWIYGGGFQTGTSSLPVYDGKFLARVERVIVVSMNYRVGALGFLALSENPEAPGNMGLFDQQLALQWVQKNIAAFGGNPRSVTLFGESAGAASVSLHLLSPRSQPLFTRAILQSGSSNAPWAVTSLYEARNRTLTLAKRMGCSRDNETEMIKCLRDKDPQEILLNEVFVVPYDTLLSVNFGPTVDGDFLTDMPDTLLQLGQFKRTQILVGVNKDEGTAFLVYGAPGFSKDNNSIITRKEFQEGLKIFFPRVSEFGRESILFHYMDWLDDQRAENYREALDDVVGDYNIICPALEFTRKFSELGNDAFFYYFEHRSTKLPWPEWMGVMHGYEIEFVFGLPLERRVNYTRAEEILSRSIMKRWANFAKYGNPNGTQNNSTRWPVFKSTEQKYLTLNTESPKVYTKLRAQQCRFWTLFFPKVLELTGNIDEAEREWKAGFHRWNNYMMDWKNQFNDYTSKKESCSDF

The inhibition is how much of the control response was suppressed. Regarding `COc1ccc2c3c1O[C@H]1C[C@@H](O)C=C[C@@]31CCN(C)C2` [Galantamine, reference compound], in experiment [1], the inhibition at 62.5 µg/mL is 67.2%, the inhibition at 125 µg/mL is 72.9%, the inhibition at 250 µg/mL was 77.4% and the inhibition at 500 µg/mL was 84.4%. Moreover, in experiment [1], the inhibition at 1000 µg/mL amounted to 89.5 ± 1.93%. The spontaneous alternation in experiment [2] is listed as 47.56%. In experiment [3], the “number of lines crossed” value was found to be 50.33, the “time spent in the central area” value was found to be 13 mint and the “time spent in the peripheral area” value was “significantly (p<0.01) less time in the peripheral area”. Also, in experiment [4], the “retention transfer latency (RTL)” value amounted to 38.33 s and the “initial transfer latency (ITL)” value stood at 47.33 s.

As for `CC(=O)[C@H]1CC[C@H]2[C@@H]3CCC4=CC(=O)CC[C@]4(C)[C@H]3CC[C@]12C` [progesterone], the spontaneous alternation in experiment [2] was determined as 40.001%. Besides, in experiment [3], the “number of lines crossed” value worked out at 42, the “time spent in the central area” value was 9.66 mint and the “time spent in the peripheral area” value is “significant (p˂0.05) decline in time spent peripherally”. For the same molecule, in experiment [4], the “retention transfer latency (RTL)” value was 50.33 s and the “initial transfer latency (ITL)” value amounted to 56.5 s.
